Test results: patent US10464925B2, “Methods to induce targeted protein degradation through bifunctional molecules” (Dana-Farber Cancer Institute, Inc., priority 2015, dated 2019)
Where two headings read alike, the source gives them in different places.

Experiments:
MDA-MB-436 = assay: cells; conditions: Homo sapiens, MDA-MB-436, 72 h
Cl-1 = assay: cells; conditions: 72 h
HCT116 = assay: cells; conditions: Homo sapiens, HCT-116, 72 h
NMC-G1 = assay: cells; conditions: 72 h
SUM159 = assay: cells; conditions: SUM159, 72 h
SUM149R = assay: cells; conditions: 72 h
DND41 = assay: Cell viability, ATPlite 48 hours, DND41; assay type: cell-based; conditions: DND41 cells
Method: (§1) ATP content was measured as a surrogate for cellular viability using ATPlite (Promega).

SKMEL28 = assay: cells; conditions: Homo sapiens, SK-MEL-28, 72 h
SUM159R = assay: cells; conditions: 72 h
Calu6 = assay: Cell viability, ATPlite 72 hours; assay type: cell-based; conditions: Homo sapiens, Calu-6
Method: Various cell lines were seeded into 384-well tissue culture-treated plates at a density of 2,000 cells per well in a volume of 50 μL/well. […] After 72 hours of incubation, cells were analyzed for cell viability using the ATPlite (PerkinElmer) Luminescence Assay Kit per the manufacturer's instructions, using ATP content as a surrogate for viable cell number. Luminescence was read on an EnVision 2104 Multilabel Plate Reader (PerkinElmer).

CUTL1 = assay: Cell viability, ATPlite 48 hours, CUTLL1; assay type: cell-based; conditions: CUTL1 cells
Method: as §1

NCI-H838 = assay: cells; conditions: Homo sapiens, NCI-H838, 72 h
KARPAS = assay: cells; conditions: 72 h
SW1783 = assay: cells; conditions: Homo sapiens, SW1783, 72 h
BRDT = BRDT (Homo sapiens, UniProt Q58F21); assay: BRDT IC50 (Table 4); assay type: binding; conditions: read-out: IC50 (nM) BRDT
MDA-MB-231 = assay: cells; conditions: Homo sapiens, MDA-MB-231, 72 h
KP-N-YN = assay: cells; conditions: 72 h
ASPC1 = assay: cells; conditions: Homo sapiens, ASPC1, 72 h
SUM185 = assay: cells; conditions: 72 h
SBC-5 = assay: cells; conditions: Homo sapiens, SBC-5, 72 h
HCC1315 = assay: cells; conditions: 72 h
MKN45 = assay: cells; conditions: Homo sapiens, MKN-45, 72 h
MOLT4 = assay: Cell viability, ATPlite 48 hours, MOLT4; assay type: cell-based; conditions: Homo sapiens, MOLT-4; MOLT4 cells
Method: as §1

NCI-H460 = assay: cells; conditions: Homo sapiens, NCI-H460, 72 h
NGP = assay: Cell viability, ATPlite 72 hours; assay type: cell-based; conditions: NGP; for IC50: read-out: IC50 (nM) NGP
PANC032 = assay: cells; conditions: 72 h
MC116 = assay: cells; conditions: Homo sapiens, MC116, 72 h
LCLC-103H = assay: cells; conditions: Homo sapiens, 72 h
KP2 = assay: cells; conditions: 72 h
T47D = assay: cells; conditions: Homo sapiens, 72 h
SUM149 = assay: cells; conditions: SUM149, 72 h

## Cc1sc2c(c1C)C(c1ccc(Cl)cc1)=N[C@@H](CC(=O)NCCCCCCCCNC(=O)COc1cccc3c1C(=O)N(C1CCC(=O)NC1=O)C3=O)c1nnc(C)n1-2 (some centres unmarked) [dBET6]
MDA-MB-436; read-out: Emax (%) MDA-MB-436
  Emax: 29.5%
MDA-MB-436; read-out: IC50 (nM) MDA-MB-436
  IC50: 39.6 nM
Cl-1; read-out: Emax (%) Cl-1
  Emax: 10.7%
Cl-1; read-out: IC50 (nM) Cl-1
  IC50: 23.3 nM
HCT116; read-out: Emax (%) HCT116
  Emax: 26.9%
HCT116; read-out: IC50 (nM) HCT116
  IC50: 154 nM
NMC-G1; read-out: Emax (%) NMC-G1
  Emax: 36.6%
NMC-G1; read-out: IC50 (nM) NMC-G1
  IC50: 70 nM
SUM159; read-out: Emax (%) SUM159
  Emax: 12%
SUM159; read-out: IC50 (nM) SUM159
  IC50: 32.5 nM
SUM149R; read-out: Emax (%) SUM149R
  Emax: 10.6%
SUM149R; read-out: IC50 (nM) SUM149R
  IC50: 18.5 nM
DND41
  IC50: 34.4 nM
SKMEL28; read-out: Emax (%) SKMEL28
  Emax: 59%
SKMEL28; read-out: IC50 (nM) SKMEL28
  IC50: 474 nM
SUM159R; read-out: Emax (%) SUM159R
  Emax: 36%
SUM159R; read-out: IC50 (nM) SUM159R
  IC50: 92.4 nM
Calu6
  Emax: 51.7%
  IC50: 233 nM
CUTL1
  IC50: 70.8 nM
NCI-H838; read-out: Emax (%) NCI-H838
  Emax: 32.2%
NCI-H838; read-out: IC50 (nM) NCI-H838
  IC50: 52 nM
KARPAS; read-out: Emax (%) KARPAS
  Emax: 21%
KARPAS; read-out: IC50 (nM) KARPAS
  IC50: 2.18 nM
SW1783; read-out: Emax (%) SW1783
  Emax: 22.2%
SW1783; read-out: IC50 (nM) SW1783
  IC50: 38.2 nM
BRDT
  IC50: 56 nM
MDA-MB-231; read-out: Emax (%) MDA-MB-231
  Emax: 24.2%
MDA-MB-231; read-out: IC50 (nM) MDA-MB-231
  IC50: 146 nM
KP-N-YN; read-out: Emax (%) KP-N-YN
  Emax: 42.8%
KP-N-YN; read-out: IC50 (nM) KP-N-YN
  IC50: 9.41 nM
ASPC1; read-out: Emax (%) ASPC1
  Emax: 50.4%
ASPC1; read-out: IC50 (nM) ASPC1
  IC50: 1460 nM
SUM185; read-out: Emax (%) SUM185
  Emax: 22.9%
SUM185; read-out: IC50 (nM) SUM185
  IC50: 1.44 nM
SBC-5; read-out: Emax (%) SBC-5
  Emax: 21.6%
SBC-5; read-out: IC50 (nM) SBC-5
  IC50: 841 nM
HCC1315; read-out: Emax (%) HCC1315
  Emax: 41.2%
HCC1315; read-out: IC50 (nM) HCC1315
  IC50: 1060 nM
MKN45; read-out: Emax (%) MKN45
  Emax: 19.4%
MKN45; read-out: IC50 (nM) MKN45
  IC50: 41.1 nM
MOLT4
  IC50: 65.3 nM
NCI-H460; read-out: Emax (%) NCI-H460
  Emax: 34.4%
NCI-H460; read-out: IC50 (nM) NCI-H460
  IC50: 438 nM
NGP; 72 h, read-out: Emax (%) NGP
  Emax: 21.9%
NGP; 72 h
  IC50: 188 nM
NGP
  IC50: 188 nM
PANC032; read-out: Emax (%) PANC032
  Emax: 53.2%
PANC032; read-out: IC50 (nM) PANC032
  IC50: 1450 nM
MC116; read-out: Emax (%) MC116
  Emax: 0.32%
MC116; read-out: IC50 (nM) MC116
  IC50: 20.5 nM
LCLC-103H; read-out: Emax (%) LCLC-103H
  Emax: 24%
LCLC-103H; read-out: IC50 (nM) LCLC-103H
  IC50: 84.2 nM
KP2; read-out: Emax (%) KP2
  Emax: 20.7%
KP2; read-out: IC50 (nM) KP2
  IC50: 513 nM
T47D; read-out: Emax (%) T47D
  Emax: 49.4%
T47D; read-out: IC50 (nM) T47D
  IC50: 7.46 nM
SUM149; read-out: Emax (%) SUM149
  Emax: 27.9%
SUM149; read-out: IC50 (nM) SUM149
  IC50: 131 nM
